4 compounds from ChEMBL document CHEMBL1152098, “A new rearranged cholestane glycoside from ornithogalum saundersiae bulbs exhibiting potent cytostatic activities on leukemia HL-60 and molt-4 cells” (Bioorg Med Chem Lett, 1996) can be followed below.

SMILES strings stand for the structures.

One experiment deals with MOLT-4. Put plainly: Compound was tested for its anticancer activity against human T-lymphocytic leukemia MOLT-4 cells. It is filed as functional, cell-based.
A further experiment concerns HL-60. In words: Compound was tested for its anticancer activity against HL-60 cells. In kind it is functional, cell-based. The note with it: Homo sapiens.

With `CN(Cc1cnc2nc(N)nc(N)c2n1)c1ccc(C(=O)N[C@@H](CCC(=O)O)C(=O)O)cc1` [METHOTREXATE], the IC50 in the experiment with MOLT-4 was 48 nM.

In turn, `COc1cccc2c1C(=O)c1c(O)c3c(c(O)c1C2=O)C[C@@](O)(C(=O)CO)C[C@@H]3O[C@H]1C[C@H](N)[C@H](O)[C@H](C)O1` [DOXORUBICIN] yielded an IC50 in the experiment on MOLT-4 of 35 nM.

The compound `COc1cc([C@@H]2c3cc4c(cc3[C@@H](O[C@@H]3O[C@@H]5CO[C@@H](C)O[C@H]5[C@H](O)[C@H]3O)[C@H]3COC(=O)[C@H]23)OCO4)cc(OC)c1O` [ETOPOSIDE] gave an IC50 in the experiment on MOLT-4 of 38 nM.

As for `COc1ccc(C(=O)O[C@@H]2[C@H](O)[C@@H](O)[C@H](O[C@@H]3[C@H](O[C@H]4CC[C@@]5(C)C(=CC[C@H]6[C@@H]7C[C@@H]8O[C@@H](O)[C@H](C=C(C)C)[C@]9(C)O[C@@H](OC)C7(CC[C@@H]65)[C@H]89)C4)O[C@@H](CO)[C@@H](O)[C@@H]3O)O[C@H]2C)cc1` (stereo not given in full), the figures for the IC50 in the experiment on MOLT-4 and in the experiment on HL-60 were 3.2 nM and 9.2 nM, respectively.
